Measured values published in patent US7807439B2, “Staphylococcus aureus-specific detection media and identifying and/or counting method using same” (Biomerieux S.A., priority 2001, dated 2010).

Assays:
Assay in all cases: Experiment 1: chromogenic α-glucosidase substrates in gelled medium, colony coloration
Details in all cases: substrate 100 mg/l
S. intermedius 075 = format: cell-based, Staphylococcus intermedius; parameters: key to I (intensity of coloration): 0 corresponds to a lack of activity; 0.1 corresponds to the presence of a trace of coloration; 0.5 corresponds to the presence of a very pale coloration; 1 corresponds to the presence of a clear coloration of weak intensity; 1.5 corresponds to the presence of a coloration which is intermediate between colorations 1 and 2; 2 corresponds to the presence of a true coloration of medium intensity; 2.5 corresponds to the presence of a coloration which is intermediate between colorations 2 and 3; 3 corresponds to the presence of an intense coloration; 3.5 corresponds to the presence of a coloration which is intermediate between colorations 3 and 4; 4 corresponds to the presence of a very intense coloration; key to C (coloration of the colonies): —: the symbol “−” is synonymous with a lack of colour or intensity
Experimental: (§1) The α-glucosidase substrates are solubilized in dimethyl sulfoxide at a concentration of 200 g/l. A sufficient volume to obtain a final concentration of substrate of 100 mg/l is added to the four molten media. Microorganisms derived from the bioMérieux internal collection were seeded onto each one of the media, on their own as three dials, using a suspension at 0.5 MacFarland. However, results obtained with microorganisms derived from collections available to the public, ATCC or NCTC for example, would give identical results. The dishes were incubated at 37° C. for 48 hours. The colonies were examined visually after an incubation time of 24 and 48 hours. The coloration and also the intensity of this coloration were noted.
(§2) In table 2 below, as in the tables which will follow, C represents the coloration of the colonies after incubation, I represents the intensity of this coloration, the symbol “−” is synonymous with a lack of colour or intensity, and, finally, TI defines the incubation time. It should be noted that the intensity of the coloration is an arbitrary scale, but which is common to all the biological samples and all the media tested. This scale is valid for this experiment and also for all the experiments which will follow. It can be defined in the following way: • 0 corresponds to a lack of activity, • 0.1 corresponds to the presence of a trace of coloration, • 0.5 corresponds to the presence of a very pale coloration, • 1 corresponds to the presence of a clear coloration of weak intensity, • 1.5 corresponds to the presence of a coloration which is intermediate between colorations 1 and 2, • 2 corresponds to the presence of a true coloration of medium intensity, • 2.5 corresponds to the presence of a coloration which is intermediate between colorations 2 and 3, • 3 corresponds to the presence of an intense coloration • 3.5 corresponds to the presence of a coloration which is intermediate between colorations 3 and 4, • 4 corresponds to the presence of a very intense coloration.

S. saprophyticus 064 = format: cell-based, Staphylococcus saprophyticus; parameters: key to I (intensity of coloration): 0 corresponds to a lack of activity; 0.1 corresponds to the presence of a trace of coloration; 0.5 corresponds to the presence of a very pale coloration; 1 corresponds to the presence of a clear coloration of weak intensity; 1.5 corresponds to the presence of a coloration which is intermediate between colorations 1 and 2; 2 corresponds to the presence of a true coloration of medium intensity; 2.5 corresponds to the presence of a coloration which is intermediate between colorations 2 and 3; 3 corresponds to the presence of an intense coloration; 3.5 corresponds to the presence of a coloration which is intermediate between colorations 3 and 4; 4 corresponds to the presence of a very intense coloration; key to C (coloration of the colonies): —: the symbol “−” is synonymous with a lack of colour or intensity
Experimental: as §1, §2

S. epidermidis 009 = format: cell-based, Staphylococcus epidermidis; parameters: key to I (intensity of coloration): 0 corresponds to a lack of activity; 0.1 corresponds to the presence of a trace of coloration; 0.5 corresponds to the presence of a very pale coloration; 1 corresponds to the presence of a clear coloration of weak intensity; 1.5 corresponds to the presence of a coloration which is intermediate between colorations 1 and 2; 2 corresponds to the presence of a true coloration of medium intensity; 2.5 corresponds to the presence of a coloration which is intermediate between colorations 2 and 3; 3 corresponds to the presence of an intense coloration; 3.5 corresponds to the presence of a coloration which is intermediate between colorations 3 and 4; 4 corresponds to the presence of a very intense coloration; key to C (coloration of the colonies): —: the symbol “−” is synonymous with a lack of colour or intensity
Experimental: as §1, §2

S. xylosus 008 = format: cell-based, Staphylococcus xylosus; parameters: key to I (intensity of coloration): 0 corresponds to a lack of activity; 0.1 corresponds to the presence of a trace of coloration; 0.5 corresponds to the presence of a very pale coloration; 1 corresponds to the presence of a clear coloration of weak intensity; 1.5 corresponds to the presence of a coloration which is intermediate between colorations 1 and 2; 2 corresponds to the presence of a true coloration of medium intensity; 2.5 corresponds to the presence of a coloration which is intermediate between colorations 2 and 3; 3 corresponds to the presence of an intense coloration; 3.5 corresponds to the presence of a coloration which is intermediate between colorations 3 and 4; 4 corresponds to the presence of a very intense coloration; key to C (coloration of the colonies): —: the symbol “−” is synonymous with a lack of colour or intensity
Experimental: as §1, §2

S. aureus 276 = format: cell-based, Staphylococcus aureus; parameters: key to I (intensity of coloration): 0 corresponds to a lack of activity; 0.1 corresponds to the presence of a trace of coloration; 0.5 corresponds to the presence of a very pale coloration; 1 corresponds to the presence of a clear coloration of weak intensity; 1.5 corresponds to the presence of a coloration which is intermediate between colorations 1 and 2; 2 corresponds to the presence of a true coloration of medium intensity; 2.5 corresponds to the presence of a coloration which is intermediate between colorations 2 and 3; 3 corresponds to the presence of an intense coloration; 3.5 corresponds to the presence of a coloration which is intermediate between colorations 3 and 4; 4 corresponds to the presence of a very intense coloration
Experimental: as §1, §2

S. aureus 070 = format: cell-based, Staphylococcus aureus; parameters: key to I (intensity of coloration): 0 corresponds to a lack of activity; 0.1 corresponds to the presence of a trace of coloration; 0.5 corresponds to the presence of a very pale coloration; 1 corresponds to the presence of a clear coloration of weak intensity; 1.5 corresponds to the presence of a coloration which is intermediate between colorations 1 and 2; 2 corresponds to the presence of a true coloration of medium intensity; 2.5 corresponds to the presence of a coloration which is intermediate between colorations 2 and 3; 3 corresponds to the presence of an intense coloration; 3.5 corresponds to the presence of a coloration which is intermediate between colorations 3 and 4; 4 corresponds to the presence of a very intense coloration
Experimental: as §1, §2

S. aureus 004 = format: cell-based, Staphylococcus aureus; parameters: key to I (intensity of coloration): 0 corresponds to a lack of activity; 0.1 corresponds to the presence of a trace of coloration; 0.5 corresponds to the presence of a very pale coloration; 1 corresponds to the presence of a clear coloration of weak intensity; 1.5 corresponds to the presence of a coloration which is intermediate between colorations 1 and 2; 2 corresponds to the presence of a true coloration of medium intensity; 2.5 corresponds to the presence of a coloration which is intermediate between colorations 2 and 3; 3 corresponds to the presence of an intense coloration; 3.5 corresponds to the presence of a coloration which is intermediate between colorations 3 and 4; 4 corresponds to the presence of a very intense coloration
Experimental: as §1, §2

Compound	C (coloration of the colonies) (S. intermedius 075; TI 24 h)	I (intensity of coloration) (S. intermedius 075; TI 24 h)	C (coloration of the colonies) (S. intermedius 075; TI 48 h)	I (intensity of coloration) (S. intermedius 075; TI 48 h)	C (coloration of the colonies) (S. saprophyticus 064; TI 24 h)	I (intensity of coloration) (S. saprophyticus 064; TI 24 h)	C (coloration of the colonies) (S. saprophyticus 064; TI 48 h)	I (intensity of coloration) (S. saprophyticus 064; TI 48 h)	C (coloration of the colonies) (S. epidermidis 009; TI 24 h)	I (intensity of coloration) (S. epidermidis 009; TI 24 h)	C (coloration of the colonies) (S. epidermidis 009; TI 48 h)	I (intensity of coloration) (S. epidermidis 009; TI 48 h)	C (coloration of the colonies) (S. xylosus 008; TI 24 h)	I (intensity of coloration) (S. xylosus 008; TI 24 h)	C (coloration of the colonies) (S. xylosus 008; TI 48 h)	I (intensity of coloration) (S. xylosus 008; TI 48 h)	C (coloration of the colonies) (S. aureus 276; TI 24 h)	I (intensity of coloration) (S. aureus 276; TI 24 h)	C (coloration of the colonies) (S. aureus 276; TI 48 h)	I (intensity of coloration) (S. aureus 276; TI 48 h)	other results
5-bromo-4-chloro-3-indoxyl-α-D-glucoside [X-a-GLU]	turquoise	0.5	turquoise	2	—	0	turquoise	0.5	—	0	turquoise	1	turquoise	0.5	turquoise	1.5	turquoise	2	turquoise	2	C (coloration of the colonies) (S. aureus 070; TI 24 h): turquoise; I (intensity of coloration) (S. aureus 070; TI 24 h): 1.5; C (coloration of the colonies) (S. aureus 070; TI 48 h): turquoise; I (intensity of coloration) (S. aureus 070; TI 48 h): 1.5; C (coloration of the colonies) (S. aureus 004; TI 24 h): turquoise; I (intensity of coloration) (S. aureus 004; TI 24 h): 1; C (coloration of the colonies) (S. aureus 004; TI 48 h): turquoise; I (intensity of coloration) (S. aureus 004; TI 48 h): 2
OC[C@H]1O[C@H](Oc2c[nH]c3cc(Cl)ccc23)[C@H](O)[C@@H](O)[C@@H]1O [Pink-a-GLU, 6-Chloro-3-indoxyl-α-D-glucoside]	—	0	pink	0.5	—	0	—	0	—	0	—	0	—	0	pink	0.5	pink	1.5	pink	1.5	C (coloration of the colonies) (S. aureus 070; TI 24 h): pink; I (intensity of coloration) (S. aureus 070; TI 24 h): 2; C (coloration of the colonies) (S. aureus 070; TI 48 h): pink; I (intensity of coloration) (S. aureus 070; TI 48 h): 2; C (coloration of the colonies) (S. aureus 004; TI 24 h): pink; I (intensity of coloration) (S. aureus 004; TI 24 h): 1; C (coloration of the colonies) (S. aureus 004; TI 48 h): pink; I (intensity of coloration) (S. aureus 004; TI 48 h): 1
OC[C@H]1O[C@H](Oc2c[nH]c3cc(Br)ccc23)[C@H](O)[C@@H](O)[C@@H]1O [Red “A” a-GLU, 6-Bromo-3-indoxyl-α-D-glucoside]	—	0	pink	1.5	—	0	—	0	—	0	—	0	—	0	pink	2.5	pink	2	pink	2	C (coloration of the colonies) (S. aureus 070; TI 24 h): pink; I (intensity of coloration) (S. aureus 070; TI 24 h): 2; C (coloration of the colonies) (S. aureus 070; TI 48 h): pink; I (intensity of coloration) (S. aureus 070; TI 48 h): 2.5; C (coloration of the colonies) (S. aureus 004; TI 24 h): pink; I (intensity of coloration) (S. aureus 004; TI 24 h): 0.5; C (coloration of the colonies) (S. aureus 004; TI 48 h): pink; I (intensity of coloration) (S. aureus 004; TI 48 h): 2.5
